Measurements: PMC4197335, “Cancer-Selective Targeting of the NF-κB Survival Pathway with GADD45β/MKK7 Inhibitors” (Cancer Cell, 2014)
Read-outs that look alike come from different tables or passages of the source.

Columns and labels:
plasma stability = assay type: in vitro ADME, human
Source text: (§1) Pharmacophore Model Building
(§2) The pharmacophore predictive
(§3) Broad- Panel Kinase Profiling
(§4) according to in-house protocols therein.
(§5) Pharmacokinetic Anal yses
(§6) In vitro pharmacok inetic assays were […]

[1] = subcutaneous U266 myeloma xenograft (plasmacytoma model); assay type: in vivo, mice; settings: male, NOD/SCID (NOD.CB17-Prkdcscid/IcrCrl), mouse, plasma, sc; continual infusion 14.5 mg/kg/day; SEM, n=16; read-out: plasma concentration at the steady state
[2] = pharmacokinetics after single intravenous injection
Description: The pharmacokinetic analyses of DTP3 and z-DTP2 were outsourced. Additional details are provided in Supplemental Experimental Procedures. […]
as §5
In vitro and in vivo pharmacok inetic analyses were outsourced to Cypr ot ex (http://www.c yprotex.com/home/) (Figure 7A, Tables S6). In vitro pharmacok inetic assays were perf ormed according to established, in- house protocols and included: plasma stability (human), thermodynamic solubility (PBS pH 7.4, at 37 °C f or 14 days), microsomal stability (human), plasma protein binding (PPB; mouse and human), and distribution coeff icient (LogD). In vivo pharmacok inetic […]
analyses were also perf ormed at Cyprotex according to established, in- house protocols. Brief ly, the peptides were dissolved in PBS and administered by single intravenous injection t o CD1 male mice at the dose of 10 mg/kg (25 -30 g of total body weight; n=3 mice per time point per compound) . Blood samples were collected in heparinized tubes at up to 7 tim e points after this injection (i.e. 0.08, 0.25, 0.5, 1, 2, 4 and 8 hr), and the plasma concentrations of the test peptide were determined at each time point by LC-MS/ MS, using a f ive- point standard curve covering a peptide concentration range from 3 to 3,000 ng/mL. Standard curves were prepared using blank plasma matrices and treated in the same manner as the test samples. The main pharmacok inetic parameters determined in these analyses were: terminal half-lif e (t 1/2 ), plasma clearance (CL), volume of distribution (V d ), and area under the plasma concentration versus time curve (AUC) (Figure 7A, Table S6). Values were calculated from the data of the peptide plasma concentration versus time curves using a non-compartmental model analysis, as described elsewhere (Groulx, 2006; Landaw and Di Stef ano 3rd, 1982) . […]

GADD45β/MKK7 complex = biological target: T1, GADD45β/MKK7 complex (Homo sapiens, UniProt O14733); experiment: ELISA GADD45β/MKK7 competition assay; assay type: binding
T1 construct: Full-length human (h)MKK7 was expressed as a protein fused to an N-terminal GST tag (GST-MKK7); made in house
T1 sequence (O14733 1-419): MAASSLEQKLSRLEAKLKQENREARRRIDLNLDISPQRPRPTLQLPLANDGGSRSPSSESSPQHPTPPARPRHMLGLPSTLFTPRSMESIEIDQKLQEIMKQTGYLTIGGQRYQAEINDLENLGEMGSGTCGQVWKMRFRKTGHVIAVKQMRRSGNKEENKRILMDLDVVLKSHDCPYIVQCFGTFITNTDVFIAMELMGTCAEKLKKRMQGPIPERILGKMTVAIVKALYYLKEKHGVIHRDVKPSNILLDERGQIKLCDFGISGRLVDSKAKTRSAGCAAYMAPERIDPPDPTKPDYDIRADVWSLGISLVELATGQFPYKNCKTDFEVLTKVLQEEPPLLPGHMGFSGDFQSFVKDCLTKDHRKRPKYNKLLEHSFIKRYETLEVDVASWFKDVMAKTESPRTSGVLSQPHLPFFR
Source text: (§7) Additional details are provided in Supplemental Experimental Procedures.
(1:1,000) and the HRP chromogenic substrate, o -phenylenediamine (OPD). GST -coated wells wer e […]
The ELISA competition screen used f or the isolation of antagonists of the GADD45β /MKK7 […]
The library deconvolution strategy used for this screen was described previously […]
General information about this type of screens can be found elsewhere […]
Values were expressed as the percentage of inhibition of His6-hGADD45β binding to GST-hMKK7 relative to the binding measured in the absence of […]
Dose-response, ELISA GADD45β /MKK7 competition assays were carried out under similar […]
As part of the SAR analysis and lead optimization process, where appropriate, competitors were tested at a concentration up to 100 nM. In order to determine their stability in biolog ical f luids , peptides were incubated at the concentration of 10 µM in […]
calculated using at least 7 concentrations of peptide and def ined as the mean concentration of peptide […]
the absence of competitor. W here indicated, values were expressed as the percentage of inhibition of His 6 -hGADD45β binding to GST-hMKK7 relative to the binding measured in the absence of competitor.
GST was used as a control in all the experiments. […]
tetrapeptide used as negative control in some of the ELISA and cellular assays was as f ollows: z -DNC, z-T yr -Asp-His-Gln-NH 2 . […]

[3] = distribution coefficient (LogD); assay type: physicochemical
Source text: as §1, §2, §3, §4, §5, §6

plasma protein binding = assay type: in vitro ADME; settings: read-out: PPB (fraction unbound)
Source text: as §1, §2, §3, §4, §5, §6

mouse splenocytes = experiment: cells; settings: read-out: IC50 (normal; splenocytes); at 48 hr
Source text: as §7
automated system (Becton Dick inson) and analyzed with FlowJo.

CC(=O)N[C@H](Cc1ccc(O)cc1)C(=O)N[C@H](CCCNC(=N)N)C(=O)N[C@H](Cc1ccccc1)C(N)=O [DTP3, Ac-YRF-NH2]
plasma stability (human) (plasma stability): > 48 h | level at time molar [1]: 700 ± 90 nM | predicted dose required to achieve the therapeutic plasma concentration of 1 μM at the steady state ([2]; k0 = k1 x Vd x Cp): 0.81 mg/kg/h | AUC ([2]; mouse, in vivo, iv, 10 mg/kg): 6430 ± 10 ng·h/mL | Vd ([2]; mouse, in vivo, iv, 10 mg/kg): 2.8 ± 1.26 L/kg | clearance ([2]; mouse, in vivo, iv, 10 mg/kg): 27.1 ± 4.09 mL/min/kg | half-life ([2]; mouse, in vivo, iv, 10 mg/kg): 1.26 h | IC50 (GADD45β/MKK7 complex; Table S4, read-out: IC50s (ELISA)): 0.16 nM | inhibition at 0.042 µM (GADD45β/MKK7 complex; read-out: % inhibition of (ELISA)): 94% | logD [3]: 1.19 ± 0.29 | fraction unbound (plasma protein binding; human): 0.933 ± 0.004 | fraction unbound (plasma protein binding; mouse): 0.42 ± 0.01 | IC50 (mouse splenocytes): > 100000 nM
